Experimental data taken from patent publication US8039483B2, “Quinuclidine carbonate salts and medicinal composition thereof” (Chiesi Farmaceutici S.p.A., priority 2008, dated 2011).

Tests used:
[1] = Plasma stability in rat plasma; format: in vitro ADME; conditions: 37° C.
Experimental: (§1) Briefly 10 μl of a stock solution 250 μM of compound 1 in acetonitrile were added to 1 ml of rat and human plasma, and samples were incubated at 37° C. Plasma (50 μL) was taken after 0, 1 and 5 hours of incubation and added to 140 μl of acetonitrile with addition of verapamil as internal standard (250 ng/ml). Samples were analysed by HPLC-MS/MS analysis.
(§2) Plasma stability was calculated as percentage remaining after 1 and 5 hours by dividing the peak area at 1 or 5 hours by the area of the peak at time 0. […] The other compounds of the invention behave similarly.

[2] = Plasma stability in human plasma; format: in vitro ADME; conditions: 37° C.
Experimental: as §1, §2

Measured: plasma stability, percentage remaining

O=C(OC(c1cccc(F)c1)c1cccc(F)c1)O[C@H]1C[N+]2(CC(=O)c3cccs3)CCC1CC2.[Cl-] [Compound 1, (R)-3-[Bis-(3-fluoro-phenyl)-methoxycarbonyloxy]-1-(2-oxo-2-thiophen-2-yl-ethyl)-1-azonia-bicyclo[2.2.2]octane; chloride]
less than 2%: [1]; after 1 hour of incubation | [1]; after 5 hours of incubation | [2]; after 1 hour of incubation | [2]; after 5 hours of incubation
